Laboratory results from patent publication US20080089844A1 (priority 2002, published 2008).
Entries after “also recorded” stand apart in the source; their conditions may differ. Where two headings read alike, the source gives them in different places.

Key:
Kv3.4 = Kv3.4 (Homo sapiens, UniProt Q03721); details: cited from earlier work
[1] = tested on: primary cultures of myocytes; assay type: cell-based, rat
Shaker potassium channel = Shaker potassium channel (Drosophila melanogaster, UniProt P08510); details: cited from earlier work
[2] = tested on: New Zealand White rabbits; details: rabbit, in vivo
Kv2.1 = Kv2.1 (Homo sapiens, UniProt Q14721); details: cited from earlier work
[3] = rat, in vivo, iv
Nav1.5 = Nav1.5 (Homo sapiens, UniProt Q14524); details: cited from earlier work
eag = eag (Homo sapiens, UniProt O95259); details: cited from earlier work
herg = herg (Homo sapiens, UniProt Q12809); details: cited from earlier work
[4] = tested on: ventricular myocyte, cortex and trachea primary cultures; assay type: cell-based, rat
[5] = tested on: cardiac ventricular myocytes; assay type: cell-based, rat
Kv1.1 = Kv1.1 (Homo sapiens, UniProt Q09470); details: cited from earlier work
Nav1.2 = Nav1.2 (Homo sapiens, UniProt Q99250); details: cited from earlier work
[6] = tested on: trout Shaker homolog (Sha1); details: cited from earlier work
Kv4.2 = Kv4.2 (Homo sapiens, UniProt Q9NZV8); details: cited from earlier work
Kv1.3 = Kv1.3 (Homo sapiens, UniProt P22001); details: cited from earlier work
Kv1.4 = Kv1.4 (Homo sapiens, UniProt P22459); details: cited from earlier work
F425G Shaker mutation = F425G Shaker mutation (Drosophila melanogaster, UniProt P08510, F425G); details: cited from earlier work
Sequence of F425G Shaker mutation (P08510 whole entry F425G, looked up): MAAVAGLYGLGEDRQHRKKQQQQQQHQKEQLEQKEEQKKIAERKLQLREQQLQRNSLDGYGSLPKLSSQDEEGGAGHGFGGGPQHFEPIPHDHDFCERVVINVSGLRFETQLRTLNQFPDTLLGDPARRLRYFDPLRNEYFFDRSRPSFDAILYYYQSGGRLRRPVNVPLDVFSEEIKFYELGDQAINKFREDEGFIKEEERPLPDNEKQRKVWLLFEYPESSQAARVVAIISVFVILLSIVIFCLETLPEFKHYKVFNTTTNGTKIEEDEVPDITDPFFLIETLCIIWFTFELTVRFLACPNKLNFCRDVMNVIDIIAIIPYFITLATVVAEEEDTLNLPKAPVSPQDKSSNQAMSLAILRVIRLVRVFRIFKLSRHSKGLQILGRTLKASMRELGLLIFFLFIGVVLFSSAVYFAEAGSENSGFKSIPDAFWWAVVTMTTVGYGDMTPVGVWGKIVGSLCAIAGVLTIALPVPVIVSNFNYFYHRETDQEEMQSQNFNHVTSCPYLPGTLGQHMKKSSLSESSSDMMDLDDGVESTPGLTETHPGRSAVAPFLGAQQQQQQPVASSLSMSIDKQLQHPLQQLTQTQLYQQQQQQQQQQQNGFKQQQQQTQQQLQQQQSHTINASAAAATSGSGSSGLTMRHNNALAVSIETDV

Sequence of Shaker potassium channel (P08510 whole entry, looked up): as the sequence (P08510 whole entry F425G, looked up) above, with G425F counted along it
Sequence of Kv1.1 (Q09470 whole entry, looked up): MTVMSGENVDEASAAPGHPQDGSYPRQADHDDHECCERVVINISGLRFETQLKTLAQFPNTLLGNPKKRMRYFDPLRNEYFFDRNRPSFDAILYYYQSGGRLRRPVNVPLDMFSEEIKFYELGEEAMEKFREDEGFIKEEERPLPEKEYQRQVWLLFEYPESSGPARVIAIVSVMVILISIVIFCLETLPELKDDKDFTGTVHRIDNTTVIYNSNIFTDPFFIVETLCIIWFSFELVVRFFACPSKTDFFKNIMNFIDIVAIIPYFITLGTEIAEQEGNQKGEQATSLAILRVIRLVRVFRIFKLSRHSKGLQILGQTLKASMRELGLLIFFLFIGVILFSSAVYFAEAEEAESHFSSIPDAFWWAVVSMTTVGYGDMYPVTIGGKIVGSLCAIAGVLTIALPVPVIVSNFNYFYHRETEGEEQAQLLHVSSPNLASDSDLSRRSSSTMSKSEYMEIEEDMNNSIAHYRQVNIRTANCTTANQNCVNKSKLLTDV
Sequence of Nav1.2 (Q99250 whole entry, looked up): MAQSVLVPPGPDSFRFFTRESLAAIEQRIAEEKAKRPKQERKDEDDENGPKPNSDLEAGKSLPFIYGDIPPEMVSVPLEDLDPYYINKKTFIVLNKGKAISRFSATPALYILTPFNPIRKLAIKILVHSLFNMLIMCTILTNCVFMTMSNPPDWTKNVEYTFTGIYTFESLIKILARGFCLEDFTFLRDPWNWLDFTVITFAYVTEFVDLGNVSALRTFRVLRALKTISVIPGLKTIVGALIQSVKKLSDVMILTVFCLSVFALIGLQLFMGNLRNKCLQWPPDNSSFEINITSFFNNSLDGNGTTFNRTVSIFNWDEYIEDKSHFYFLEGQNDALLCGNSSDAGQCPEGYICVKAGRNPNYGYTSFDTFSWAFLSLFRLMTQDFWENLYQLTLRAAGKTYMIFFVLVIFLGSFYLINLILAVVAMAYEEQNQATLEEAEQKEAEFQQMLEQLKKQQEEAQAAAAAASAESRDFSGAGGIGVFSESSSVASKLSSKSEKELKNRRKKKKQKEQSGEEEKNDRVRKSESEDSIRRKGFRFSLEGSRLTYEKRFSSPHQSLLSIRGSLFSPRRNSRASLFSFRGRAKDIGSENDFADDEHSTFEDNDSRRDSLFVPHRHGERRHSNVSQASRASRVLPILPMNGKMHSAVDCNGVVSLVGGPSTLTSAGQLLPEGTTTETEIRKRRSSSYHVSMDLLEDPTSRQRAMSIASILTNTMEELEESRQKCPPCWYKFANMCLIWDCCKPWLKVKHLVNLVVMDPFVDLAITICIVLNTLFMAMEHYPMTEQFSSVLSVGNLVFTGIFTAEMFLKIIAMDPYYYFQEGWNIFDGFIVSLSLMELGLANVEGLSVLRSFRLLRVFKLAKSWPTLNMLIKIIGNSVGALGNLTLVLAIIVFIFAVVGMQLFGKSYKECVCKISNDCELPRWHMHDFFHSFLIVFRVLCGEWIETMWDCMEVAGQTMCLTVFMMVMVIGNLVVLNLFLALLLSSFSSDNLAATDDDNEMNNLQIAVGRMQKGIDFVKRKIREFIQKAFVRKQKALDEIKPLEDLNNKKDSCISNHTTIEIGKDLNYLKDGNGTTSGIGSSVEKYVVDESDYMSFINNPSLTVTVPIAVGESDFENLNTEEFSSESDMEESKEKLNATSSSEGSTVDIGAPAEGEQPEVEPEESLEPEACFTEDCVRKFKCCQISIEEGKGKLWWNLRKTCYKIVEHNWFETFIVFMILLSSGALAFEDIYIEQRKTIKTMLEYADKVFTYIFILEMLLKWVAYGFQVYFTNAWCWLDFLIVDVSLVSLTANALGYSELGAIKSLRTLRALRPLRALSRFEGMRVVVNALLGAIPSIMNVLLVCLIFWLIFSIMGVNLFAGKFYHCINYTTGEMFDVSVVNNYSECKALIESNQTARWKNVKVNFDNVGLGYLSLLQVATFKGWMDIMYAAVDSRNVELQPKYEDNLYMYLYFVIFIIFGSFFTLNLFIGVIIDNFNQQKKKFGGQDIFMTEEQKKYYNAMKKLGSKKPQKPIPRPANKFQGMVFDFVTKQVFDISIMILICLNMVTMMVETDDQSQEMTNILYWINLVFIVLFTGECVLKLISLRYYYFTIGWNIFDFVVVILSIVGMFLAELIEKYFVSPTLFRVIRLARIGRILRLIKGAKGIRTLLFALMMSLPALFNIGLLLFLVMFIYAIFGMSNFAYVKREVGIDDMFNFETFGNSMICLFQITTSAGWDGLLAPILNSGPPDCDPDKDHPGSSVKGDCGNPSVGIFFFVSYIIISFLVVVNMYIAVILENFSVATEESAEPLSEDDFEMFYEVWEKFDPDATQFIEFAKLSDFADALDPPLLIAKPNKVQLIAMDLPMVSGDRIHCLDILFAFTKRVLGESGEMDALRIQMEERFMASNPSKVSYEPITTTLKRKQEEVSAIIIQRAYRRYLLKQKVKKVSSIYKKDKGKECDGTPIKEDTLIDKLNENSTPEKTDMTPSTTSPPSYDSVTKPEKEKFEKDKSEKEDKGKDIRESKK
Sequence of Kv1.3 (P22001 whole entry, looked up): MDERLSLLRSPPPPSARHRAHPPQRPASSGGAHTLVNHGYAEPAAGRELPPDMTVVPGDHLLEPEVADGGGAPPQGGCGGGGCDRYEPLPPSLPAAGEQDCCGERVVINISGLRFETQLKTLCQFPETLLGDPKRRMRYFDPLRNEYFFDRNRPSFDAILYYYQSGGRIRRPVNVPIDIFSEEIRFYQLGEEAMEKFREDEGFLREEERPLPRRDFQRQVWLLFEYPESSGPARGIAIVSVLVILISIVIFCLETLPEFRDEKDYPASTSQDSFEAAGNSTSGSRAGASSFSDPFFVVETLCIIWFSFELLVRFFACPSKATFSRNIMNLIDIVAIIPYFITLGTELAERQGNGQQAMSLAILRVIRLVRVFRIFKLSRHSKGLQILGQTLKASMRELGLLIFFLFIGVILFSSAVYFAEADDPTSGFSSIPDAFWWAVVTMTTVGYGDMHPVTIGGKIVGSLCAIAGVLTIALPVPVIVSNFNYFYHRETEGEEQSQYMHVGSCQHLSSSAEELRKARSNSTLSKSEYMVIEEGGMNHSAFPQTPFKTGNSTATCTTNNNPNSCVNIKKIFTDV
Sequence of Kv3.4 (Q03721 whole entry, looked up): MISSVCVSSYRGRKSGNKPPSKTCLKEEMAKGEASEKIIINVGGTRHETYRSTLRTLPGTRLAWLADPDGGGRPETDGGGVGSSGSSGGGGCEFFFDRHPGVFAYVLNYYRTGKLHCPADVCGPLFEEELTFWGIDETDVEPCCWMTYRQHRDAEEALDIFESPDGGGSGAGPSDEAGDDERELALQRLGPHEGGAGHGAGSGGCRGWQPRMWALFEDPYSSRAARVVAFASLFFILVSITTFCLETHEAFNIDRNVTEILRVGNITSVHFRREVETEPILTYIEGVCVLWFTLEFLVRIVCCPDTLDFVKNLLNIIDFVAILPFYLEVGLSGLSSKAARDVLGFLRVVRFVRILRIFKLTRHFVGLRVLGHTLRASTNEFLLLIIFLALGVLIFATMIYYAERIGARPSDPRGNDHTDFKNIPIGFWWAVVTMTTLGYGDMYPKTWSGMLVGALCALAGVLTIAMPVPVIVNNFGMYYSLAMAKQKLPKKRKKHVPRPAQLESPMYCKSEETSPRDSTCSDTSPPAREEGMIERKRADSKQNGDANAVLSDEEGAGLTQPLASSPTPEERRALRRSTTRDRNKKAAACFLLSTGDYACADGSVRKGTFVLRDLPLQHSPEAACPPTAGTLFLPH
Sequence of Kv4.2 (Q9NZV8 whole entry, looked up): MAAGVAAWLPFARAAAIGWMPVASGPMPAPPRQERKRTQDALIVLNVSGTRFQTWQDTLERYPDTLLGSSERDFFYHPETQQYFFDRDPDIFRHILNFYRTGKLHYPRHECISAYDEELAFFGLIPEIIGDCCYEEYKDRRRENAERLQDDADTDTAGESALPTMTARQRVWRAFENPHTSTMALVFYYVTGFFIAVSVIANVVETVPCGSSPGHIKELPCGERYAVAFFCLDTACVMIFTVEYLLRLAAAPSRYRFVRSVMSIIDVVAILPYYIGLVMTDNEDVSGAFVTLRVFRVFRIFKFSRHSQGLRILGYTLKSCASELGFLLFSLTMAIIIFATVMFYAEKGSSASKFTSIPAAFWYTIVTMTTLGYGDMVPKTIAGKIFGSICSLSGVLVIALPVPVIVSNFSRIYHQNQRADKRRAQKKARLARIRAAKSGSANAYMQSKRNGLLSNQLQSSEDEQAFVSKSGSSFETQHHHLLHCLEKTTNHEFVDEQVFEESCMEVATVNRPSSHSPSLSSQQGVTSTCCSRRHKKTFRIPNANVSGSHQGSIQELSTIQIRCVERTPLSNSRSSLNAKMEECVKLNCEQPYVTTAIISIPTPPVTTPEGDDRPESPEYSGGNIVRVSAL

## Leu-X2-Ser-Cys-Cys-Ser-Leu-Asn-Leu-X1-Leu-Cys-X2-Val-X2-Ala-Cys-X3-X1-Asn-X2-Cys-Cys-Thr [κM-RIIIK]
Kv3.4
  activity on Kv3.4: no detectable activity
[1]
  induction of glibenclamide-sensitive currents: induces glibenclamide-sensitive currents in primary cultures of myocytes in a highly potent manner
Shaker potassium channel
  state dependence of inhibition, open vs closed state affinity: three to four times lower affinity for the open state
Shaker potassium channel; read-out: IC50, antagonist of the Shaker potassium channel
  IC50: ~1200 nM
[2]
  infarct size: reduces the infarct size
[2]; iv
  hemodynamic effect: without any hemodynamic effect
Kv2.1
  activity on Kv2.1: no detectable activity
[3]
  effect on blood pressure: no effect
  effect on heart rate: no effect
Nav1.5
  activity on Nav1.5: no detectable activity
eag
  activity on eag: no detectable activity
herg
  activity on herg: no detectable activity
[4]
  protection against hypoxia-induced changes in intracellular calcium: able to provide protection against hypoxia
Isolated rabbit hearts
  infarct size: reduces the infarct size
[5]
  protection against hypoxia-induced depolarization: prevents any hypoxia-induced changes in membrane potential; also recorded: strong protective effect; also recorded: confers protection against hypoxia-induced depolarization
Kv1.1
  activity on Kv1.1: no detectable activity
Nav1.2
  activity on Nav1.2: no detectable activity
[6]
  state dependence of inhibition, open vs closed state affinity: three to four times lower affinity for the open state
[6]; read-out: IC50 on Sha1, closed state
  IC50: 20 nM
[6]; read-out: IC50 on Sha1, open state
  IC50: 60 nM
Kv4.2
  activity on Kv4.2: no detectable activity
Kv1.3
  activity on Kv1.3: no detectable activity
Kv1.4
  activity on Kv1.4: no detectable activity
F425G Shaker mutation
  effect of F425G Shaker mutation on κM-RIIIK sensitivity: decreases κM-RIIIK sensitivity
